Reference: US12220420B2, “Combination therapy for cancer treatment” (Galera Labs, LLC, priority 2016, dated 2025)

Key:
[1] = tested on: breast cancer cells (MB231); experiment: Total glutathione levels, DTNB recycling spectrophotometric assay; type: cell-based, human; conditions: 50 μM or 100 μM BSO, 24 hours
Experimental: (§1) The effect of buthionine sulfoximine (BSO) on reduced glutathione (GSH) levels in breast cancer cells (MB231) and lung cancer cells (H292) was examined. The cells were plated and grown to 75% confluency, then treated with either 50 μM BSO or 100 μM BSO for another 24 hours before harvesting for analysis for total glutathione levels using a DTNB recycling spectrophotometric assay.

lung cancer cells (H292) = experiment: as above; type: cell-based, human; conditions: 50 μM or 100 μM BSO, 24 hours
Experimental: as §1

[2] = Tuder et al. 2003; cited from earlier work
H1299 cancer cells = experiment: Clonogenic assay of FIG. 4, normalized surviving fraction; type: cell-based, human; conditions: 20 μM GC4419, FIG. 4, control also about 1
Experimental: The effect of the pentaaza macrocyclic ring complex GC4419 in combination with inhibitors of hydrogen peroxide metabolism was tested on breast cancer cells (MB231) and non-small cell lung cancer cells (H1299) versus normal cells (HMEC normal mammary epithelial cells and HBEpC normal bronchial epithelial cells). The cells were plated and grown exponentially for 2 days. Either or both of 20 μM of the CG4419 compound and 100 μM BSO were added at time 0 of exposure, and 500 nM Auranofin (a thioredoxin reductase inhibitor) was added 48 hours after, for 15 minutes prior to a clonogenic assay.

[3] = tested on: Subcutaneous H1299 tumors; experiment: Non-small cell lung cancer tumor xenograft model with or without radiation; type: in vivo
Experimental: The effect of the pentaaza macrocyclic ring complex GC4419 was tested in vivo on non-small cell lung cancer (NSCLC) in a tumor xenograft model. Subcutaneous H1299 tumors were subjected to biologically equivalent fractionation schemes of 18 Gy×1 dose or 2 Gy×16 doses (delivered on consecutive days), 1 hour following an initial injection of 24 mg/kg GC4419. GC4419 was also administered on the next 4 consecutive days after the first injection (given, in the case of the 2 Gy fraction dose experiment, 1 hour prior to each of those 4 days' radiation treatments).

[4] = Anderson 2015; cited from earlier work
HN5 (HNSCC) tumors = experiment: Animal model of squamous cell carcinoma of the head and neck with or without radiation; type: in vivo
Experimental: The effect of GC4419 was tested in vivo on animal models of squamous cell carcinoma of the head and neck (HNSCC). GC4419 was delivered as a 24 mg/kg daily dose delivered as an ip bolus on 5 consecutive days starting 1 hour prior to irradiation. Radiation was delivered as a single dose of 12 Gy using a 10 mm collimated beam aimed at the center of the tumor.

[5] = tested on: human lung cancer cells (H292); experiment: PeroxyOrange-1 (PO-1) oxidation as a measure of steady-state H2O2; type: cell-based
Experimental: The effects on H2O2 fluxes of a pentaaza macrocyclic ring complex (GC4419) provided in combination with inhibitors of H2O2 metabolism were tested in human lung cancer cells (H292). The H292 cells were treated with 20 μM GC4419 for 3 and 24 hours, and PeroxyOrange-1 (PO-1) oxidation was monitored as a measure of steady-state H2O2. […] Also, the combination of GC4419+BSO+AT for 3 hours (B-AT 4419 3) and 24 hours (B-AT 4419 24) further increased PO-1 oxidation to 3-fold greater than a control. The PO-1 oxidation was also monitored in dosing the cells three times with 100 μM hydrogen peroxide (H2O2).

[6] = tested on: lung cancer cells (H1299); experiment: 3-aminotriazole mediated inactivation of catalase (H2O2 flux); type: cell-based, human; conditions: 20 μM GC4419, H1299
Experimental: (§2) The effect of the pentaaza macrocyclic ring complex GC4419 in increasing levels of H2O2 in cancer cells was further tested by measuring the 3-aminotriazole mediated inactivation of catalase, using a method as described in Ahmad et al, J. Biol Chem, 280(6), 4254-4263 (2005). Briefly, head and neck cancer cells (Cal27), lung cancer cells (H1299) and breast cancer cells (MB231) were grown in 60 mm dishes, transduced with 50 MOI adCat to genetically increase catalase expression, and allowed 48 hours to recover so that the activity of catalase could increase to maximal levels. Afterwards, 50 mM AT was added for 5 minutes, which irreversibly binds to and inhibits the catalase intermediate formed in the presence of H2O2. 20 μM GC4419 was added, and cells were collected at 10 minute intervals for 60 minutes, and the inhibition of catalase was determined. A Lowry's protein assay determined the total protein concentration of individual samples. This method provides a stoichiometry of one catalase molecule being inhibited for each molecule of H2O2, thereby providing for precise measurements of changes in H2O2 flux. The results are shown in FIG. 3 (left hand side is Cal27, middle is H1299, and right hand side is MB231).

[7] = tested on: breast cancer cells (MB231); experiment: as above; type: cell-based, human; conditions: 20 μM GC4419, MB231
Experimental: as §2

[8] = tested on: Breast cancer cells (MB231) and lung cancer cells (H1299); experiment: Clonogenic killing in presence and absence of N-acetylcysteine (NAC); type: cell-based, human; conditions: 10 mM of NAC; 20 μM GC4419, 100 μM BSO, 500 nM Au
Experimental: Breast cancer cells (MB231) and lung cancer cells (H1299) were grown in culture to 75% confluence and treated with either 20 μM GC4419, or 100 μM BSO with 500 nM Au added after 48 hours, or all of GC4419, BSO and Au. The cancer cells were also treated with the same sets of compounds, but with the further addition of 10 mM of NAC. […] Thus, the results support that pentaaza macrocyclic ring complexes such as GC4419 combined with inhibitors of hydrogen peroxide metabolism can selectively kill cancer cells versus normal cells via oxidative stress correlated with increase H2O2 fluxes.

[9] = tested on: Non-small cell lung cancer cells (H1299); experiment: Clonogenic cell survival assay, auranofin alone and with ionizing radiation; type: cell-based, human
Experimental: The effects of an inhibitor of hydrogen peroxide metabolism, auranofin (a thioredoxin reductase inhibitor), on cancer cells was tested in a clonogenic cell survival assay to determine the effects of the compound alone and in combination with ionizing radiation. Non-small cell lung cancer cells (H1299) were exponentially grown and treated with auranofin (Au) either by itself for 15 minutes, or 15 minutes prior to the first of two ionizing radiation (IR) doses (2 Gy each) spaced 24 hours apart. After the last ionizing radiation dose, the cells were trypsinized, counted, replated at varying lower densities and incubated for 12 days. Plates were stained and counted for clonogenic survival assays. […] Furthermore, treatment with auranofin sensitized the cancer cells to radiation, thereby increasing the efficiency of the ionizing radiation in cell killing (Auranofin+IR) as compared to administration of ionizing radiation alone (IR 4 Gy).

[10] = 24 mg/kg GC4419, 5 consecutive days
[11] = 24 mg/kg daily ip bolus, 5 consecutive days

## CCCCS(=N)(=O)CCC(N)C(=O)O (stereo not shown) [BSO, buthionine sulfoximine]
[1]
  glutathione levels: significantly decreases
Lung cancer cells (H292)
  glutathione levels: significantly decreases

## [Cl][Mn][Cl].c1cc2nc(c1)CN[C@H]1CCCC[C@@H]1NCCN[C@H]1CCCC[C@@H]1NC2 [GC4419]
[2]
  VEGFr inhibitor-induced pulmonary disease: attenuate VEGFr inhibitor-induced pulmonary disease
H1299 cancer cells
  normalized surviving cell fraction (on a log scale): about 1
[3]; 24 mg/kg GC4419 1 hour before 18 Gy×1 or 2 Gy×16
  response of NSCLC tumors to radiation: significantly enhancing radiation induced growth delay, and survival
[3]; [10]
  anti-cancer effect, cancer size as compared to the control: reduced cancer size
  survival as compared to the control: improved survival
[4]
  oral mucositis: reduce oral mucositis
HN5 (HNSCC) tumors; [11]
  tumor growth: significant growth delay
  tumor volumes as compared to a control: reduced tumor volumes
HN5 (HNSCC) tumors; 24 mg/kg daily ×5 starting 1 hour prior to single dose of 12 Gy
  tumor growth, combination with radiation: even greater growth delays
[5]; 20 μM GC4419, 3 hours
  increase in PO-1 oxidation as compared to the control: 1.5 fold
[5]; 20 μM GC4419, 24 hours
  increase in PO-1 oxidation as compared to the control: 1.5 fold
[6]
  steady-state levels of intracellular H2O2 flux, normalized to the control: significant increases
[7]
  steady-state levels of intracellular H2O2 flux, normalized to the control: significant increases

## CC(=O)N[C@@H](CS)C(=O)O [NAC, N-acetylcysteine]
[8]
  effect of NAC on cell killing caused by GC4419+Au and/or BSO: nearly completely inhibited the cell killing

## CC(=O)OCC1OC([S-])C(OC(C)=O)C(OC(C)=O)C1OC(C)=O.CCP(CC)CC.[Au+] (stereo not shown) [auranofin, gold(+1)cation; 3,4,5-triacetyloxy-6-(acetyloxymethyl)oxane-2-thiolate; triethylphosphanium]
[9]; 250 nM of auranofin, FIG. 6
  normalized surviving cell fraction: over 0.5
[9]; 250 nM, 15 minutes
  cell killing as compared to a control: significant cell killing
[9]; 15 minutes prior to first of two IR doses (2 Gy each), versus IR 4 Gy alone
  response of cancer cells to ionizing radiation: significantly increases
